{
  "source": "paper PMC13652807",
  "about": "“A co-evolved peptide-GPCR system senses host entry to drive fungal infection” (Nature Communications, 2026)",
  "key": {"wild-type Gpe1": {"biological_target": "T1, wild-type Gpe1 (Mycosarcoma maydis, UniProt A0A0D1E6B3)", "T1 construct": "expressed in transfected cells; host or cells: Saccharomyces cerevisiae JTy014-derived reporter strain, plasmid pIL0186 (pRS416 backbone)", "T1 sequence (A0A0D1E6B3 1-435)": "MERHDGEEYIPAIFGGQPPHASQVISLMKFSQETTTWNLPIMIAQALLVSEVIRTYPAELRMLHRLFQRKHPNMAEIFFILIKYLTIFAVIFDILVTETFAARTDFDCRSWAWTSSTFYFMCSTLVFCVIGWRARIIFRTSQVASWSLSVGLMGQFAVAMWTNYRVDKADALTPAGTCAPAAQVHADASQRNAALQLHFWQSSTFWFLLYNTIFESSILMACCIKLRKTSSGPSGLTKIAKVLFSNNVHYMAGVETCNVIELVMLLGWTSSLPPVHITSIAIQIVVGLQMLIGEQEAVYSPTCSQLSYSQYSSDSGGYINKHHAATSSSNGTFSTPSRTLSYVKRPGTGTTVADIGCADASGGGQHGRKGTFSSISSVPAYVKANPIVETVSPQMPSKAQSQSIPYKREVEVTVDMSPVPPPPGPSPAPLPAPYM", "assay": "Dose-response of synthetic peptide in yeast reporter assay, wild-type Gpe1", "format": "cell-based, Ustilago maydis", "conditions": "for EC50: 9 concentrations up to 15 µM, fluorescence after 20 h, four-parameter fit, Fig. 2b/2d, mean of three independent biological experiments", "description": "Experiments were performed in 96-well microtiter plates using a microplate reader (Tecan), and OD600 and red fluorescence were measured after 20 h. A four-parameter non-linear regression model (curve fit) was used using Prism (GraphPad 5): Agonist concentration vs. response (variable slope). After analysis, EC50, basal activation, maximal activation and the Hill coefficient was extracted as previously described."}, "[1]": {"biological_target": "G-protein-coupled receptor promoting fungal in planta expansion 1 (Gpe1) (Ustilago maydis)"}, "[2]": {"system": "UmGpe1 (Gpe1, UMAG_01374)", "assay": "GPCR activation assay in S. cerevisiae (yEmRFP reporter under FUS1 promoter), added protein/peptides", "format": "cell-based, Ustilago maydis", "from_the_text": "To enable ligand identification, Gpe1 was then expressed in an engineered Saccharomyces cerevisiae strain to test receptor activation through production of a fluorescent reporter[22]. This strain is devoid of both endogenous mating GPCR genes (STE2 and STE3), all pheromone genes (MFA1/2 and MFALPHA1/MFALPHA2), BAR1, SST2 and FAR1[22]. And carries an unmodified version of ScGPA1, which is the homolog of U. maydis Gpa1[23]. The coupling of ScGPA1 with Gpe1, and later MAPK pathway activation, lead to the induction of a red fluorescent protein (yEmRFP) under control of the FUS1 promoter serves as readout.\nThe activation assays for each GPCR were performed as previously described with slight modifications[22]. […] Experiments were performed in 96-well microtiter plates using a microplate reader (Tecan), and OD600 and red fluorescence were measured after 8 h. Experiments were run in triplicate.\nThe mixture of tryptic-digested UmPit2 peptides were subjected to separation with a binary gradient of from 5 % to 95 % acetonitrile with a flowrate of 2 mL/min on an HPLC system (Agilent) for 60 min operated in a C-18 reverse phase column. The injection point was after 2 min and while the separation process was running, 2 mL sample was collected until fraction number 50. […]"}, "Gpe1R133A": {"biological_target": "T2, Gpe1R133A (Mycosarcoma maydis, UniProt A0A0D1E6B3, R133A)", "T2 construct": "expressed in transfected cells; host or cells: Saccharomyces cerevisiae reporter strain, plasmid pIL0373 (made from pIL0186)", "T2 sequence (A0A0D1E6B3 1-435 R133A)": "T1 sequence (A0A0D1E6B3 1-435) with R133A", "assay": "Dose-response in yeast reporter assay, Gpe1 R133A", "format": "cell-based, Ustilago maydis", "conditions": "Fig. 4e; receptor variant R133A", "description": "(§1) To test the functional relevance of this putative TM3–TM6 activation module, we generated Gpe1 variants targeting R133 and the adjacent TM6 residues N246 and N247 (Supplementary Fig. 5). Gpe1 variant activation was analyzed by the yeast reporter system. […] However, reduced activity of individual variants may also reflect effects on receptor stability or intracellular trafficking competence.\n(§2) For the plasmid constructions, standard molecular cloning strategies and techniques were applied. For GPCR expression in S. cerevisiae, the ScSte2 expression vector pRS416[22] was digested with SpeI and XhoI to remove the ScSte2 gene. The pure backbone vector was used for classical restriction-ligation (T4 ligase) to clone the GPCR genes inside using unique restriction sites (SpeI and XhoI) added in the PCR gene amplification. For plasmid amplification, recombinant plasmids were transformed in chemically competent E. coli Top10 cells. […]\n(§3) For dose response curves, 9 different concentrations (15 μM and […] five-fold dilutions starting at 8 μM peptide, sterile water was used as no peptide control) of the specific synthetic peptide were used. Experiments were performed in 96-well microtiter plates using a microplate reader (Tecan), and OD600 and red fluorescence were measured after 20 h. […]"}, "Gpe1N246L+N247L": {"biological_target": "T3, Gpe1N246L+N247L (Mycosarcoma maydis, UniProt A0A0D1E6B3, N246L/N247L)", "T3 construct": "expressed in transfected cells; host or cells: Saccharomyces cerevisiae reporter strain, plasmid pIL0350 (made from pIL0186)", "T3 sequence (A0A0D1E6B3 1-435 N246L/N247L)": "T1 sequence (A0A0D1E6B3 1-435) with N246L, N247L", "assay": "Dose-response in yeast reporter assay, Gpe1 N246L+N247L", "format": "cell-based, Ustilago maydis", "conditions": "Fig. 4e; receptor variant N246L+N247L", "description": "as §1, §2, §3"}, "Gpe1N246D+N247G": {"biological_target": "T4, Gpe1N246D+N247G (Mycosarcoma maydis, UniProt A0A0D1E6B3, N246D/N247G)", "T4 construct": "expressed in transfected cells; host or cells: Saccharomyces cerevisiae reporter strain, plasmid pIL0351 (made from pIL0186)", "T4 sequence (A0A0D1E6B3 1-435 N246D/N247G)": "T1 sequence (A0A0D1E6B3 1-435) with N246D, N247G", "assay": "Dose-response in yeast reporter assay, Gpe1 N246D+N247G", "format": "cell-based, Ustilago maydis", "conditions": "Fig. 4e; receptor variant N246D+N247G; read-out: apparent EC50", "description": "as §1, §2, §3"}, "S. cerevisiae Ste2": {"system": "S. cerevisiae Ste2", "assay": "GPCR activation assay in S. cerevisiae, positive control", "format": "cell-based, Saccharomyces cerevisiae", "conditions": "10 µM α-factor, full agonist positive control; set to 100 %", "text": "Three extra- and intracellular loops connect the TMs, with the N-terminal 35 residues and the 38 residues of the second extracellular loop (ECL2) forming an extracellular extension (Fig. 1b). ECL2 is also predicted to be connected to TM3 via a disulfide bond formed by Cys178 and Cys108 (Fig. 1b), a hallmark of many rhodopsin-class GPCRs[21]. To enable ligand identification, Gpe1 was then expressed in an engineered Saccharomyces cerevisiae strain to test receptor activation through production of a fluorescent reporter. This strain is devoid of both endogenous mating GPCR genes (STE2 and STE3), all pheromone genes (MFA1/2 and MFALPHA1/MFALPHA2), BAR1, SST2 and FAR1[22]. And carries an unmodified version of ScGPA1, which is the homolog of U. maydis Gpa1[23]. The coupling of ScGPA1 with Gpe1, and later MAPK pathway activation, lead to the induction of a red fluorescent protein (yEmRFP) under control of the FUS1 promoter serves as readout. Western blot analysis confirmed expression of Gpe1 in S. cerevisiae (Supplementary Fig.1b).\nThe activation assays for each GPCR were performed as previously described with slight modifications. […] Experiments were performed in 96-well microtiter plates using a microplate reader (Tecan), and OD600 and red fluorescence were measured after 8 h. Experiments were run in triplicate."}},
  "note": "Substitutions are numbered along the chain they refer to. Where a SMILES comes first, the peptide text is derived from it.",
  "data": [
    {"molecule": "AWFGFTGSL [pit2.13]", "values": [
      {"measurement": "Receptor activation in dose-response (in words)", "setting": "wild-type Gpe1; Fig. 2d", "result": "abolished receptor activation"}
    ]},
    {"molecule": "CC(C)C[C@H](NC(=O)[C@H](CO)NC(=O)[C@H](CC(C)C)NC(=O)[C@@H](NC(=O)[C@H](Cc1ccccc1)NC(=O)CNC(=O)[C@H](Cc1ccccc1)NC(=O)[C@H](Cc1c[nH]c2ccccc12)NC(=O)[C@@H](N)Cc1c[nH]c2ccccc12)[C@@H](C)O)C(=O)O", "note": "[pit2.17] (H-WWFGFTLSL-OH)", "values": [
      {"measurement": "EC50", "setting": "wild-type Gpe1", "result": 23, "unit": "nM"}
    ]},
    {"molecule": "Pit2.5 (…) (peptide)", "values": [
      {"measurement": "EC50 of the yEmRFP reporter in S. cerevisiae, dose response with synthetic peptide", "setting": "[1]", "result": 80, "unit": "nM"},
      {"measurement": "activation level (% activity) in the S. cerevisiae biosensor assay", "setting": "UhGpe1 (Ustilago hordei)", "result": 30, "unit": "%"}
    ]},
    {"molecule": "Pit2: purified recombinant U. maydis effector protein Pit2 (UMAG_01375) lacking its signal peptide", "values": [
      {"measurement": "Gpe1 activation level, fluorescence normalized to the Ste2 activation being 100 %", "setting": "[2]; 100 µM purified full-length Pit2 lacking signal peptide, red fluorescence after 8 h, mean of three independent biological experiments", "result": "~ 25%"}
    ]},
    {"molecule": "CC(C)C[C@H](NC(=O)[C@H](CO)NC(=O)CNC(=O)[C@@H](NC(=O)[C@H](Cc1ccccc1)NC(=O)CNC(=O)[C@H](Cc1ccccc1)NC(=O)[C@H](Cc1c[nH]c2ccccc12)NC(=O)[C@@H](N)Cc1c[nH]c2ccccc12)[C@@H](C)O)C(=O)O", "note": "[Pit2.5] (H-WWFGFTGSL-OH)", "values": [
      {"measurement": "EC50", "setting": "Gpe1R133A", "result": "> 15000", "unit": "nM"},
      {"measurement": "EC50", "setting": "wild-type Gpe1", "result": 80, "unit": "nM"},
      {"measurement": "EC50", "setting": "Gpe1N246L+N247L", "result": "> 15000", "unit": "nM"},
      {"measurement": "EC50", "setting": "Gpe1N246D+N247G", "result": 400, "unit": "nM"}
    ]},
    {"molecule": "WWFGFTGSLGK", "values": [
      {"measurement": "Identification as Gpe1 agonist", "setting": "[2]; peptide fractionation of tryptic Pit2 digest and mass spectrometry", "result": "Gpe1 agonist"}
    ]},
    {"molecule": "Pit2.5-G07L (peptide)", "values": [
      {"measurement": "EC50 of the yEmRFP reporter in S. cerevisiae, dose response with synthetic peptide; maximum fluorescence reduced", "setting": "[1]", "result": 23, "unit": "nM"}
    ]},
    {"molecule": "α-factor", "values": [
      {"measurement": "Ste2 activation, fluorescence level (normalization reference)", "setting": "S. cerevisiae Ste2", "result": 100, "unit": "%"}
    ]},
    {"molecule": "SrPit2 peptide", "values": [
      {"measurement": "activation level (% activity) in the S. cerevisiae biosensor assay", "setting": "UhGpe1 (Ustilago hordei)", "result": 45, "unit": "%"}
    ]}
  ]
}
